Measurements from patent US11051515B2, “3-acyl-benzamides and their use as herbicides” (Bayer Aktiengesellschaft, priority 2017, dated 2021).

Key:
ALOMY [1] = test: Pre-emergence action against ALOMY; type: in vivo, Alopecurus myosuroides; conditions: dosage 320 g/ha; pre-emergence; scored visually after 3 weeks vs untreated controls; 100% = plants have died, 0% = like control plants
Summary of the method: (§1)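 Seeds sown in sandy loam in wood-fiber pots and covered with soil. Greenhouse growth; visual damage scored after 3 weeks versus untreated controls (100% = dead, 0% = like control).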

AVEFA [2] = test: Pre-emergence action against AVEFA; type: in vivo, Avena fatua; conditions: dosage 320 g/ha, scored visually after 3 weeks vs untreated controls
Summary of the method: as §1

CYPES [3] = test: Pre-emergence action against CYPES; type: in vivo, Cyperus esculentus; conditions: pre-emergence, dosage 320 g/ha, scored visually after 3 weeks vs untreated controls
Summary of the method: as §1

ECHCG [4] = test: Pre-emergence action against ECHCG; type: in vivo, Echinochloa crus-galli; conditions: pre-emergence, dosage 320 g/ha, scored visually after 3 weeks vs untreated controls
Summary of the method: as §1

LOLRI [5] = test: Pre-emergence action against LOLRI; type: in vivo, Lolium rigidum; conditions: dosage 320 g/ha, scored visually after 3 weeks vs untreated controls
Summary of the method: as §1

SETVI [6] = test: Pre-emergence action against SETVI; type: in vivo, Setaria viridis; conditions: pre-emergence, dosage 320 g/ha, scored visually after 3 weeks vs untreated controls
Summary of the method: as §1

ABUTH [7] = test: Pre-emergence action against ABUTH; type: in vivo, Abutilon theophrasti; conditions: pre-emergence, dosage 320 g/ha, scored visually after 3 weeks vs untreated controls
Summary of the method: as §1

AMARE [8] = test: Pre-emergence action against AMARE; type: in vivo, Amaranthus retroflexus; conditions: pre-emergence, dosage 320 g/ha, scored visually after 3 weeks vs untreated controls
Summary of the method: as §1

MATIN [9] = test: Pre-emergence action against MATIN; type: in vivo, Matricaria inodora; conditions: Dosage 320 g/ha, pre-emergence
Summary of the method: as §1

PHBPU [10] = test: Pre-emergence action against PHBPU; type: in vivo, Pharbitis purpurea; conditions: Dosage 320 g/ha, pre-emergence
Summary of the method: as §1

POLCO [11] = test: Pre-emergence action against POLCO; type: in vivo, Polygonum convolvulus; conditions: Dosage 320 g/ha, pre-emergence
Summary of the method: as §1

STEME [12] = test: Pre-emergence action against STEME; type: in vivo, Stellaria media; conditions: Dosage 320 g/ha, pre-emergence
Summary of the method: as §1

VIOTR [13] = test: Pre-emergence action against VIOTR; type: in vivo, Viola tricolor; conditions: Dosage 320 g/ha, pre-emergence
Summary of the method: as §1

VERPE [14] = test: Pre-emergence action against VERPE; type: in vivo, Veronica persica; conditions: Dosage 320 g/ha, pre-emergence
Summary of the method: as §1

ALOMY [15] = test: Post-emergence action against ALOMY; type: in vivo, Alopecurus myosuroides; conditions: Dosage 80 g/ha, post-emergence
Summary of the method: (§2)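 Post-emergence foliar spray on greenhouse plants at the one-leaf stage, using wettable-powder or emulsion-concentrate formulations in water (600 to […], plus 0.2% wetting agent). Damage scored by eye roughly 3 weeks later against untreated plants: 0% = like control, 100% = dead.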

AVEFA [16] = test: Post-emergence action against AVEFA; type: in vivo, Avena fatua; conditions: post-emergence, dosage 80 g/ha, visual assessment about 3 weeks after treatment vs untreated controls
Summary of the method: as §2

CYPES [17] = test: Post-emergence action against CYPES; type: in vivo, Cyperus esculentus; conditions: post-emergence, dosage 80 g/ha, visual assessment about 3 weeks after treatment vs untreated controls
Summary of the method: as §2

ECHCG [18] = test: Post-emergence action against ECHCG; type: in vivo, Echinochloa crus-galli; conditions: post-emergence, dosage 80 g/ha, visual assessment about 3 weeks after treatment vs untreated controls
Summary of the method: as §2

LOLRI [19] = test: Post-emergence action against LOLRI; type: in vivo, Lolium rigidum; conditions: dosage 80 g/ha, visual assessment about 3 weeks after treatment vs untreated controls
Description: Seeds of monocotyledonous and dicotyledonous weed and crop plants are laid out in sandy loam soil in wood-fiber pots, covered with soil and cultivated in a greenhouse under good growth conditions. 2 to 3 weeks after sowing, the test plants are treated at the one-leaf stage. The compounds of the invention, formulated in the form of wettable powders (WP) or as emulsion concentrates (EC), are then sprayed onto the green parts of the plants in the form of an aqueous suspension or emulsion at a water application rate equating to […], with addition of 0.2% wetting agent. After the test plants have been left to stand in the greenhouse under optimal growth conditions for about 3 weeks, the action of the preparations is assessed visually in comparison to untreated controls (herbicidal action in percent (%): 100% activity=the plants have died, 0% activity=like control plants). […] At the same time, inventive compounds leave Gramineae crops such as barley, wheat, rye, millet/Sorghum, corn or rice virtually undamaged when applied post-emergence, even at high active ingredient dosages. In addition, some substances are also harmless to dicotyledonous crops such as soya, cotton, oilseed rape, sugar beet or potatoes. Some of the compounds according to the invention have high selectivity and are therefore suitable for controlling unwanted vegetation in agricultural crops by the post-emergence method. The data of Tables B18 to B34 below illustrate, in an exemplary manner, the […] herbicidal action of the compounds according to the invention, the herbicidal activity being stated in percent.

SETVI [20] = test: Post-emergence action against SETVI; type: in vivo, Setaria viridis; conditions: post-emergence, dosage 80 g/ha, visual assessment about 3 weeks after treatment vs untreated controls
Summary of the method: as §2

ABUTH [21] = test: Post-emergence action against ABUTH; type: in vivo, Abutilon theophrasti; conditions: post-emergence, dosage 80 g/ha, visual assessment about 3 weeks after treatment vs untreated controls
Summary of the method: as §2

AMARE [22] = test: Post-emergence action against AMARE; type: in vivo, Amaranthus retroflexus; conditions: post-emergence, dosage 80 g/ha, visual assessment about 3 weeks after treatment vs untreated controls
Summary of the method: as §2

PHBPU [23] = test: Post-emergence action against PHBPU; type: in vivo, Pharbitis purpurea; conditions: post-emergence, dosage 80 g/ha
Summary of the method: as §2

STEME [24] = test: Post-emergence action against STEME; type: in vivo, Stellaria media; conditions: post-emergence, dosage 80 g/ha
Summary of the method: as §2

VIOTR [25] = test: Post-emergence action against VIOTR; type: in vivo, Viola tricolor; conditions: post-emergence, dosage 80 g/ha
Summary of the method: as §2

VERPE [26] = test: Post-emergence action against VERPE; type: in vivo, Veronica persica; conditions: dosage 80 g/ha
Summary of the method: as §2

HORMU = test: Pre-emergence action against HORMU; type: in vivo, Hordeum murinum; conditions: Dosage 320 g/ha
Summary of the method: as §1

MATIN [27] = test: Post-emergence action against MATIN; type: in vivo, Matricaria inodora; conditions: post-emergence, dosage 80 g/ha, visual assessment about 3 weeks after treatment vs untreated controls
Summary of the method: as §2

POLCO [28] = test: Post-emergence action against POLCO; type: in vivo, Polygonum convolvulus; conditions: post-emergence, dosage 80 g/ha
Summary of the method: as §2

Row | Structure (SMILES) | Pre-emergence action against ALOMY (herbicidal activity in percent) (ALOMY [1]) [%] | Pre-emergence action against AVEFA (herbicidal activity) (AVEFA [2]) [%] | Pre-emergence action against ECHCG (herbicidal activity) (ECHCG [4]) [%] | Pre-emergence action against LOLRI (herbicidal activity) (LOLRI [5]) [%] | SETVI (Table B8, pre-emergence herbicidal activity) (SETVI [6]) [%] | Pre-emergence action against ABUTH (herbicidal activity) (ABUTH [7]) [%] | Pre-emergence action against AMARE (herbicidal activity) (AMARE [8]) [%] | Pre-emergence action against MATIN (MATIN [9]) [%] | Pre-emergence action against PHBPU (PHBPU [10]) [%] | Pre-emergence action against POLCO (POLCO [11]) [%] | Pre-emergence action against STEME (STEME [12]) [%] | Pre-emergence action against VIOTR (VIOTR [13]) [%] | Pre-emergence action against VERPE (VERPE [14]) [%] | Post-emergence action against ALOMY (ALOMY [15]) [%] | Post-emergence action against ECHCG (herbicidal action in percent) (ECHCG [18]) [%] | Post-emergence action against LOLRI (herbicidal action in percent) (LOLRI [19]) [%] | Post-emergence action against SETVI (herbicidal action in percent) (SETVI [20]) [%] | Post-emergence action against ABUTH (herbicidal action in percent) (ABUTH [21]) [%] | Post-emergence action against AMARE (herbicidal action in percent) (AMARE [22]) [%] | Post-emergence action against PHBPU (PHBPU [23]) | other results
1 | Cn1nnnc1NC(=O)c1ccc(C(F)(F)F)c(C(=O)CCl)c1Cl [1-145] | 100 | 100 | 100 | 100 | 100 | 100 | 100 | 100 | 100 | 100 | 100 | 100 | 100 | 90 | 100 | 80 | 100 | 100 | 100 | 100 | Pre-emergence action against CYPES (herbicidal activity) (CYPES [3]): 100%; Post-emergence action against AVEFA (herbicidal action in percent) (AVEFA [16]): 90%; Post-emergence action against CYPES (herbicidal action in percent) (CYPES [17]): 100%; Post-emergence action against STEME (STEME [24]): 100; Post-emergence action against VIOTR (VIOTR [25]): 100; Post-emergence action against VERPE (VERPE [26]): 100
2 | CC1CC1C(=O)c1c(C(F)(F)F)ccc(C(=O)Nc2nnnn2C)c1Cl (centres unmarked) [1-148] | 100 | 90 | 100 | 100 | 100 | 100 | 100 | 100 | 100 | 90 | 100 | 100 | 100 | 80 | 100 | 80 | 100 | 100 | 100 | 100 | Pre-emergence action against CYPES (herbicidal activity) (CYPES [3]): 90%; Pre-emergence action against HORMU (HORMU): 80%; Post-emergence action against CYPES (herbicidal action in percent) (CYPES [17]): 90%; Post-emergence action against MATIN (herbicidal action in percent) (MATIN [27]): 100%; Post-emergence action against POLCO (POLCO [28]): 80; Post-emergence action against STEME (STEME [24]): 100; Post-emergence action against VIOTR (VIOTR [25]): 90; Post-emergence action against VERPE (VERPE [26]): 100
3 | CCn1nnnc1NC(=O)c1ccc(C(F)(F)F)c(C(=O)C2CC2C)c1Cl (centres unmarked) [2-148] | 90 | 90 | 100 | 90 | 100 | 100 | 100 | 100 | 90 | 90 | 90 | 100 | 100 | 90 | 90 | 80 | 90 | 90 | 90 | 90 | Pre-emergence action against CYPES (herbicidal activity) (CYPES [3]): 90%; Post-emergence action against MATIN (herbicidal action in percent) (MATIN [27]): 90%; Post-emergence action against STEME (STEME [24]): 90; Post-emergence action against VIOTR (VIOTR [25]): 90; Post-emergence action against VERPE (VERPE [26]): 90
4 | CCn1nnnc1NC(=O)c1ccc(C(F)F)c(C(=O)C2CC2)c1Cl [2-168] | 100 | 90 | 100 | 100 | 100 | 100 | 100 | 100 | 80 | 90 | 100 | 100 | 100 | 100 | 100 | 100 | 100 | 100 | 100 | 100 | Pre-emergence action against HORMU (HORMU): 90%; Post-emergence action against AVEFA (herbicidal action in percent) (AVEFA [16]): 100%; Post-emergence action against CYPES (herbicidal action in percent) (CYPES [17]): 100%; Post-emergence action against MATIN (herbicidal action in percent) (MATIN [27]): 100%; Post-emergence action against POLCO (POLCO [28]): 100; Post-emergence action against STEME (STEME [24]): 100; Post-emergence action against VIOTR (VIOTR [25]): 100; Post-emergence action against VERPE (VERPE [26]): 80
